Data taken from US20220127297A1, “Novel Antibacterial 3"-Derivatives Of 4,6-Disubstituted 2,5-Dideoxystreptamine Aminoglycoside Antibiotics” (AGILeBiotics B.V., priority 2018, published 2022).
Converted amounts (≈) assume the structure as drawn. Read-outs that look alike come from different tables or passages of the source.

What was measured:
[1] = system: clinical isolates of multidrug-resistant Klebsiella pneumoniae (and ATCC43816); assay: MIC determination at Fidelta, clinical isolates; type: cell-based
How it was run: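 Clinical isolates and ATCC reference strains revived on MH agar, tested by broth microdilution in Mueller Hinton broth. Compounds from 5 mg/mL DMSO stocks, two-fold serial dilutions, final 64-0.125 μg/mL.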

[2] = system: Klebsiella pneumoniae ATCC 43816; assay: Murine neutropenic thigh model of infection; type: in vivo, male CD-1 mice; settings: for Change from vehicle group: Log CFU/g thigh; for Avg. Log CFU/g thigh: 24 h post infection; for survival rate: first study, vehicle group 50% mortality
Protocol: 4.1 Murine Neutropenic Thigh Model of Infection (Kiebsiella Pneumoniae ATCC 43816)
A comparator antibiotic (meropenem; Cat. No. 1392454, USP) was used during both studies.
During the first study ABX5006 and ABX5020 were tested at a dose of 64 mg/kg (group 5 for ABX5006, group 8 for ABX5020), 16 mg/kg (group 4 for ABX5006, group 7 for ABX5020) and of 4 mg/kg (group 3 for ABX5006, group 6 for ABX5020).
During a second study ABX5026 and ABX5039 were tested at a dose of 4 mg/kg (group 5 for ABX5026, group 8 for ABX5039), 1 mg/kg (group 4 for ABX5026, group 7 for ABX5039) and of 0.25 mg/kg (group 3 for ABX5026, group 6 for ABX5039).
Animals were dosed subcutaneously (10 mL/kg) twice with 8 h interval. […] A CFU count below limit of detection (LOD=1.0×10^2 CFU/mL) was substituted with the value 0 in order to perform statistical analysis.
Inoculum preparation for intramuscular infection. The strain was streaked out onto MH agar.

[3] = Klebsiella pneumoniae, ATCC43816, KP-1919, Abdomen/VIM, ESBL, read-out: MIC 90
[4] = Klebsiella pneumoniae, ATCC43816, KP-1935, Urine/ESBL, NDM, read-out: MIC 90
[5] = Klebsiella pneumoniae, ATCC43816, KP-1936, Abscess/NDM, read-out: MIC 90
[6] = Klebsiella pneumoniae, ATCC43816, KP-1937, Blood/VIM, ESBL, read-out: MIC 90
[7] = Klebsiella pneumoniae, ATCC43816, KP-1942, Urine (catheter)/VIM, read-out: MIC 90
[8] = Klebsiella pneumoniae, ATCC43816, KP-1944, Blood/NDM, read-out: MIC 90
[9] = Klebsiella pneumoniae, ATCC43816, KP-2027, Tracheal aspirate/ESBL, OXA-48, ColR, read-out: MIC 90

| SMILES | MIC90 ([1]; K. pneumoniae ATCC43816 strain) [µg/mL] | MIC90 [1, 3] [µg/mL] | MIC90 [1, 4] [µg/mL] | MIC90 [1, 5] [µg/mL] | MIC90 [1, 6] [µg/mL] | MIC90 [1, 7] [µg/mL] | MIC90 [1, 8] [µg/mL] | MIC90 [1, 9] [µg/mL] | Change from vehicle group ([2]; dose 4 mg/kg SC BID) | Change from vehicle group ([2]; dose 16 mg/kg SC BID) | Change from vehicle group ([2]; dose 64 mg/kg SC BID) | Avg. Log CFU/g thigh ([2]; dose 4 mg/kg SC BID) [Log CFU/g] | Avg. Log CFU/g thigh ([2]; dose 16 mg/kg SC BID) [Log CFU/g] | Avg. Log CFU/g thigh ([2]; dose 64 mg/kg SC BID) [Log CFU/g] | survival rate [2] [%] | further results |
| --- | --- | --- | --- | --- | --- | --- | --- | --- | --- | --- | --- | --- | --- | --- | --- | --- |
| N=C(N)NC1C(O)[C@@H](CO)OC(OC2C(F)[C@H](O[C@H]3OC(CN)[C@@H](O)CC3N)C(N)C[C@H]2NC(=O)[C@@H](O)CCN)[C@@H]1O (stereo partly shown) [ABX5006, Tobra-AHB-F-Gua] | 0.25 (≈ 0.408 µM) | 0.5 (≈ 0.816 µM) | 0.5 (≈ 0.816 µM) | 0.5 (≈ 0.816 µM) | 2 (≈ 3.26 µM) | 0.25 (≈ 0.408 µM) | 1 (≈ 1.63 µM) | 0.5 (≈ 0.816 µM) | −7.05 | −8.36 | −9.13 | 2.47 | 1.15 | 0.38 | 100 | MIC90 ([1]; Klebsiella pneumoniae, ATCC43816, KP-2029, Urine/ESBL, OXA-48, read-out: MIC 90): 0.25 µg/mL (≈ 0.408 µM); MIC90 ([1]; Klebsiella pneumoniae, ATCC43816, KP-2030, Trachea/ESBL, OXA-48, read-out: MIC 90): 0.5 µg/mL (≈ 0.816 µM); MIC90 ([1]; Klebsiella pneumoniae, ATCC43816, KP-2031, Skin/ESBL, OXA-48, read-out: MIC 90): 0.5 µg/mL (≈ 0.816 µM); MIC90 ([1]; Klebsiella pneumoniae, ATCC43816, KP-2032, Urine/ESBL, OXA-48, read-out: MIC 90): 0.25 µg/mL (≈ 0.408 µM); MIC90 ([1]; Klebsiella pneumoniae, ATCC43816, KP-2033, Urine/OXA-A8, read-out: MIC 90): 0.25 µg/mL (≈ 0.408 µM); MIC90 ([1]; Klebsiella pneumoniae, ATCC43816, KP-2034, Urine/ESBL, OXA-48, read-out: MIC 90): 0.5 µg/mL (≈ 0.816 µM); MIC90 ([1]; Klebsiella pneumoniae, ATCC43816, KP-2035, Urine/ESBL, OXA-48, read-out: MIC 90): 0.5 µg/mL (≈ 0.816 µM); MIC90 ([1]; Klebsiella pneumoniae, ATCC43816, KP-2036, Urine/ESBL, read-out: MIC 90): 0.25 µg/mL (≈ 0.408 µM); MIC90 ([1]; Klebsiella pneumoniae, ATCC43816, KP-2037, Urine/ESBL, OXA-48, read-out: MIC 90): 0.5 µg/mL (≈ 0.816 µM); CFU count reduction in comparison to the vehicle control group ([2]; dose 4 mg/kg SC BID): 7 log 10 |
| N=C(NCCN)NC1C(O)[C@@H](CO)OC(OC2C(F)[C@H](O[C@H]3OC(CN)[C@@H](O)CC3N)C(N)C[C@H]2NC(=O)[C@@H](O)CCN)[C@@H]1O (stereo partly shown) [ABX5020, Tobra-AHB-F-Gua-2-amino-ethyl] | 1 (≈ 1.53 µM) | 4 (≈ 6.1 µM) | 4 (≈ 6.1 µM) | 2 (≈ 3.05 µM) | 8 (≈ 12.2 µM) | 1 (≈ 1.53 µM) | 4 (≈ 6.1 µM) | 2 (≈ 3.05 µM) | −8.04 | −8.14 | −9.32 | 1.47 | 1.37 | 0.19 | 100 |  |
